Laboratory results from the kinase profiling compilation of Christmann-Franck et al. (2016).
Values belong to the molecule of their own block, whether it stands above or below them.

Legend:
EPHA8 (human) = EPHA8 (human) (UniProt P29322); assay: Caliper, Mobility shift assay off-chip
PRKCG (human) = PRKCG (human) (UniProt P05129); assay: Caliper, Mobility shift assay off-chip
MKNK2 (human) = MKNK2 (human) (UniProt Q9HBH9); assay: Caliper, Mobility shift assay off-chip
CDC42BPA (human) = CDC42BPA (human) (UniProt Q5VT25); assay: Caliper, Mobility shift assay off-chip
EPHB3 (human) = EPHB3 (human) (UniProt P54753); assay: Caliper, Mobility shift assay off-chip
MAP3K12 (human) = MAP3K12 (human) (UniProt Q12852); assay: ELISA
STK11 (human) = STK11 (human) (UniProt Q15831); assay: ELISA
MAP2K5 (human) = MAP2K5 (human) (UniProt Q13163); assay: ELISA
MAP2K1 (human) = MAP2K1 (human) (UniProt Q02750); assay: ELISA
MAP2K2 (human) = MAP2K2 (human) (UniProt P36507); assay: ELISA
BRAF (human) = BRAF (human) (UniProt P15056); assay: ELISA
MAP2K7 (human) = MAP2K7 (human) (UniProt O14733); assay: ELISA
MAP3K3 (human) = MAP3K3 (human) (UniProt Q99759); assay: ELISA
MAP3K1 (human) = MAP3K1 (human) (UniProt Q13233); assay: ELISA
MAP3K8 (human) = MAP3K8 (human) (UniProt P41279); assay: ELISA
RAF1 (human) = RAF1 (human) (UniProt P04049); assay: ELISA
WEE1 (human) = WEE1 (human) (UniProt P30291); assay: ELISA
MOS (human) = MOS (human) (UniProt P00540); assay: ELISA
MAP2K4 (human) = MAP2K4 (human) (UniProt P45985); assay: ELISA
MAP2K6 (human) = MAP2K6 (human) (UniProt P52564); assay: ELISA
LIMK1 (human) = LIMK1 (human) (UniProt P53667); assay: ELISA
MAP3K2 (human) = MAP3K2 (human) (UniProt Q9Y2U5); assay: ELISA
MAP3K11 (human) = MAP3K11 (human) (UniProt Q16584); assay: ELISA
MAP3K4 (human) = MAP3K4 (human) (UniProt Q9Y6R4); assay: ELISA
TTK (human) = TTK (human) (UniProt P33981); assay: ELISA
BMPR1A (human) = BMPR1A (human) (UniProt P36894); assay: ELISA
MAP3K10 (human) = MAP3K10 (human) (UniProt Q02779); assay: ELISA
MAP3K5 (human) = MAP3K5 (human) (UniProt Q99683); assay: ELISA
MAP2K3 (human) = MAP2K3 (human) (UniProt P46734); assay: ELISA
MAP3K9 (human) = MAP3K9 (human) (UniProt P80192); assay: ELISA
PLK4 (human) = PLK4 (human) (UniProt O00444); assay: ELISA
SRPK1 (human) = SRPK1 (human) (UniProt Q96SB4); assay: IMAP-FP
EIF2AK3 (human) = EIF2AK3 (human) (UniProt Q9NZJ5); assay: IMAP-FP
EIF2AK2 (human) = EIF2AK2 (human) (UniProt P19525); assay: IMAP-FP
PLK2 (human) = PLK2 (human) (UniProt Q9NYY3); assay: IMAP-FP

Chain of MAP3K3 (human) (Q99759 whole entry, looked up): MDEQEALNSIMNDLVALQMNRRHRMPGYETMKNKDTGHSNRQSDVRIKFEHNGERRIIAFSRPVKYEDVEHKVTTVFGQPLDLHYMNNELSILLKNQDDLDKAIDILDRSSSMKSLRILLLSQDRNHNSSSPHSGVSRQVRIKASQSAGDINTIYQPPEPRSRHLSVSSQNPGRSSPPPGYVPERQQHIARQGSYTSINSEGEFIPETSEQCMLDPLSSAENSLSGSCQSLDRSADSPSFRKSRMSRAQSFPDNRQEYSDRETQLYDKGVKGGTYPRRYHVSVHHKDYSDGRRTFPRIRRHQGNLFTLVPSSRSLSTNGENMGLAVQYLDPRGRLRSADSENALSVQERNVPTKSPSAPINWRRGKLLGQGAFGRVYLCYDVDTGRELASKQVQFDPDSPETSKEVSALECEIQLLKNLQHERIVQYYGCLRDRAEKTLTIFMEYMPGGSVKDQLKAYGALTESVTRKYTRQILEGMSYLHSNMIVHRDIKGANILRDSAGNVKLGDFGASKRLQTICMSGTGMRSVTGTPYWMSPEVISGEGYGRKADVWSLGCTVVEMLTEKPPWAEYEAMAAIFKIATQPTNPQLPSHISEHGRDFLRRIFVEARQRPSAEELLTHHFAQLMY
Chain of MAP3K5 (human) (Q99683 whole entry, looked up): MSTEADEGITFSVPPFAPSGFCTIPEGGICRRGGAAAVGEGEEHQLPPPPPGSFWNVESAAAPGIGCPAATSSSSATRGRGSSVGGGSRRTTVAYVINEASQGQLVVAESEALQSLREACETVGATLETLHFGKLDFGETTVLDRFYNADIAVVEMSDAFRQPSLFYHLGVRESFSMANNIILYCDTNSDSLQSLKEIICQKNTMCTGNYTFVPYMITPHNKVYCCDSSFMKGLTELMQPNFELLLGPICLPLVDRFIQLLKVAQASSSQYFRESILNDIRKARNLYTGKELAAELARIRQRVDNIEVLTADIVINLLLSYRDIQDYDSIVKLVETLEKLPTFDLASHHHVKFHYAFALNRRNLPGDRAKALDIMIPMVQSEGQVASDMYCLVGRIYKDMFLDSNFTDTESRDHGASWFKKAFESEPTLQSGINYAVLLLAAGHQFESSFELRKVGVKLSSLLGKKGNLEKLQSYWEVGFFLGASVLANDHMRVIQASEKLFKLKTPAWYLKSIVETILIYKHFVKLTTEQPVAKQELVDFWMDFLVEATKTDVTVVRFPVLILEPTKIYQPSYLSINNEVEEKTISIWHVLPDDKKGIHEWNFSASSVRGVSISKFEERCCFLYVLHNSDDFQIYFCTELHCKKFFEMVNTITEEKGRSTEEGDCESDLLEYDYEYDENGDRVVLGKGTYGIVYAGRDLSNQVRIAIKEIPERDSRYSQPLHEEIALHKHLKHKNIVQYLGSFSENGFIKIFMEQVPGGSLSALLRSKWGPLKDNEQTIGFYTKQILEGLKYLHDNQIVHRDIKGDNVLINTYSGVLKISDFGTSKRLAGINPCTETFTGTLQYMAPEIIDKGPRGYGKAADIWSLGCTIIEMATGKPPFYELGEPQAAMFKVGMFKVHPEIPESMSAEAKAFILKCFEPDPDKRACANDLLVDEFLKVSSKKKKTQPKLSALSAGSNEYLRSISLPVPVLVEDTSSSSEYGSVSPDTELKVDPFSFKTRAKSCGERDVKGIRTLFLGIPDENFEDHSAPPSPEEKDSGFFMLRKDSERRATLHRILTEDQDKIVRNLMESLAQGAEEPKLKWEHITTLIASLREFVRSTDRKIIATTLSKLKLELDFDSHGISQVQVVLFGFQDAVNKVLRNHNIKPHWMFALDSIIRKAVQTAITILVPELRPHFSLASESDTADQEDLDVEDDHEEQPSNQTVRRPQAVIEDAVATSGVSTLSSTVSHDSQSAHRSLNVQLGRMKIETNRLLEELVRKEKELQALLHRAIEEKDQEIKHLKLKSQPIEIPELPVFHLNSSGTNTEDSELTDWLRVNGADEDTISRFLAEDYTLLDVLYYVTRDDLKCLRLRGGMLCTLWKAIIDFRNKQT
Chain of MAP3K4 (human) (Q9Y6R4 whole entry, looked up): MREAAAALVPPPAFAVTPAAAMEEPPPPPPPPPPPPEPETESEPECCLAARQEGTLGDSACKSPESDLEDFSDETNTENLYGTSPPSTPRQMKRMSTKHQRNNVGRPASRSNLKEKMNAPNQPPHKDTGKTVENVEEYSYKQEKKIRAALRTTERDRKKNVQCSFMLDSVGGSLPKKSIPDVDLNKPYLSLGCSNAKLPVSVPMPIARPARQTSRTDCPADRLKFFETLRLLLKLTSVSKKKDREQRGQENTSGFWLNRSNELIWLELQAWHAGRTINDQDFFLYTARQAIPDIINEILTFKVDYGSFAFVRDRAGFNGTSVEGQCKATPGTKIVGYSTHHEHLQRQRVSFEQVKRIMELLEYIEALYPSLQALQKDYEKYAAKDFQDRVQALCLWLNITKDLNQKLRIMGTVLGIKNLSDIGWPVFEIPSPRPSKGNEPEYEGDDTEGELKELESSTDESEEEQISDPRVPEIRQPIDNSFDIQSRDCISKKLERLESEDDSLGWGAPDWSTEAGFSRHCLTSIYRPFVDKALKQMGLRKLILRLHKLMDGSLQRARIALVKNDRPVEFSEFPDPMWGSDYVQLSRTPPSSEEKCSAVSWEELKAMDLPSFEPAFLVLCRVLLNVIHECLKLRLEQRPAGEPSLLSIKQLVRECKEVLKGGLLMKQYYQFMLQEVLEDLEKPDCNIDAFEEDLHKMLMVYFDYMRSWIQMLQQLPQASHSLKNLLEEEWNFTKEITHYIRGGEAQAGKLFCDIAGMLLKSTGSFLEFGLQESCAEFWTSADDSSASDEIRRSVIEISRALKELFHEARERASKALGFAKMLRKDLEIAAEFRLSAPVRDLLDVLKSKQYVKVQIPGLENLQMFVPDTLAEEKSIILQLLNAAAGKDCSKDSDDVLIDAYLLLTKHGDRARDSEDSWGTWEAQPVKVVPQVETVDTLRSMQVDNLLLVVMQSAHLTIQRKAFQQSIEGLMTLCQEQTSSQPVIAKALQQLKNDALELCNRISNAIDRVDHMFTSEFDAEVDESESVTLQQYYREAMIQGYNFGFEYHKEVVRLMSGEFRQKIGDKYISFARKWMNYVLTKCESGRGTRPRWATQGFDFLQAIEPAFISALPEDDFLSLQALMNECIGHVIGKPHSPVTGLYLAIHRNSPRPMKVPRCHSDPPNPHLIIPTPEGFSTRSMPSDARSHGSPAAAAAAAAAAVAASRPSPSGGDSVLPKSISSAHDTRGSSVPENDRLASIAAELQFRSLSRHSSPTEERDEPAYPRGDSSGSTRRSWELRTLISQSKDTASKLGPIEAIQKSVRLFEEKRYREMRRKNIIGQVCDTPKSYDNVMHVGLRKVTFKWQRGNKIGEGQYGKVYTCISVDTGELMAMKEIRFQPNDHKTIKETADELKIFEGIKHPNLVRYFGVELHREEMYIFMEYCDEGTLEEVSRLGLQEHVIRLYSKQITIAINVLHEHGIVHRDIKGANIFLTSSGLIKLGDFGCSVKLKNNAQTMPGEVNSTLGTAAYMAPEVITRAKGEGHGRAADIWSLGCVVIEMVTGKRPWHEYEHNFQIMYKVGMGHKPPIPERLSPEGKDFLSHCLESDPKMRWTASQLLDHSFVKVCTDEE
Chain of MAP3K8 (human) (P41279 whole entry, looked up): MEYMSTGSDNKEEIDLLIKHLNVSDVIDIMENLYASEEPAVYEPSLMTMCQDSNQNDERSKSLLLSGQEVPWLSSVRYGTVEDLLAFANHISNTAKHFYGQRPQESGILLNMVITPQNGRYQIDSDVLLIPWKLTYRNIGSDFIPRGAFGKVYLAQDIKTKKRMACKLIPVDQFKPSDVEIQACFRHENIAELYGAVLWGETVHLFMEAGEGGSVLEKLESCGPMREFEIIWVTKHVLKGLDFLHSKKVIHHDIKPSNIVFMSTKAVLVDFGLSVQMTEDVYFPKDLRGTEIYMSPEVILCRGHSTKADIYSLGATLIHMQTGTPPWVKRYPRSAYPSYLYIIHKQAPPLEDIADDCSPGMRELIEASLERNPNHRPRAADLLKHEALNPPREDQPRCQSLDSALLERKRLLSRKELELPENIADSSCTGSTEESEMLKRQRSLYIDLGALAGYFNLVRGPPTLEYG
Chain of MAP2K6 (human) (P52564 whole entry, looked up): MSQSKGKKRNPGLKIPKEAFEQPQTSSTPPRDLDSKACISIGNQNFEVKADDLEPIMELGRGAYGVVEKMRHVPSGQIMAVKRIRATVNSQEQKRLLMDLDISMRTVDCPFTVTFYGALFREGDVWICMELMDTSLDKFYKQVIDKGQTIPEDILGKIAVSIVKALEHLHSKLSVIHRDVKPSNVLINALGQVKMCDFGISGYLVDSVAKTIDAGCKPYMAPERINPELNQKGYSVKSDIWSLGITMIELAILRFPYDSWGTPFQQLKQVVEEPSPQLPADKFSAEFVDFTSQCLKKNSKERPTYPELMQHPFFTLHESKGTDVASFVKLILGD
Chain of STK11 (human) (Q15831 whole entry, looked up): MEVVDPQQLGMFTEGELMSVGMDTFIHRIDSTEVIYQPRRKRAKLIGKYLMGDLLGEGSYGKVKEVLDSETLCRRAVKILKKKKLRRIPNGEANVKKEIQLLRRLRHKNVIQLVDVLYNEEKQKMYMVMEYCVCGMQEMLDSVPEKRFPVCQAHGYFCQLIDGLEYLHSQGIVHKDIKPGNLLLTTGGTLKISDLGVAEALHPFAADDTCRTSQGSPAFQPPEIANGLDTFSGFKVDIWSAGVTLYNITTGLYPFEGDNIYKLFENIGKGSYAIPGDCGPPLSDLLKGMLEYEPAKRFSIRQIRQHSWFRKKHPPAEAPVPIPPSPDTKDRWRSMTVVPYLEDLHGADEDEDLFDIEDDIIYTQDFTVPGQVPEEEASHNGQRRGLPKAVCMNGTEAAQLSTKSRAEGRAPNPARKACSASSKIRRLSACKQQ

inhibition (EPHA8 (human); compound 0.02 µM): -3.2%
inhibition (EPHA8 (human); compound 0.2 µM): 4.7%
inhibition (PRKCG (human); compound 0.02 µM): 3.8%
inhibition (PRKCG (human); compound 0.2 µM): 4.1%
inhibition (MKNK2 (human); compound 0.02 µM): -3.7%
inhibition (MKNK2 (human); compound 0.2 µM): 1.2%
inhibition (CDC42BPA (human); compound 0.02 µM): 3.4%
inhibition (CDC42BPA (human); compound 0.2 µM): 14.9%
inhibition (EPHB3 (human); compound 0.02 µM): -2.6%
inhibition (EPHB3 (human); compound 0.2 µM): -1.3%
inhibition (MAP3K12 (human); compound 0.02 µM): 8.9%
inhibition (MAP3K12 (human); compound 0.2 µM): 10.3%
inhibition (STK11 (human); compound 0.02 µM): 0.9%
inhibition (STK11 (human); compound 0.2 µM): 19%
inhibition (MAP2K5 (human); compound 0.2 µM): -8.2%
inhibition (MAP2K1 (human); compound 0.02 µM): -0.6%
inhibition (MAP2K1 (human); compound 0.2 µM): -2.4%
inhibition (MAP2K2 (human); compound 0.02 µM): -4.9%
inhibition (MAP2K2 (human); compound 0.2 µM): -23%
inhibition (BRAF (human); compound 0.2 µM): 2%
inhibition (MAP2K7 (human); compound 0.02 µM): -6.9%
inhibition (MAP2K7 (human); compound 0.2 µM): -3.5%
inhibition (MAP3K3 (human); compound 0.02 µM): 1.2%
inhibition (MAP3K3 (human); compound 0.2 µM): 2.9%
inhibition (MAP3K1 (human); compound 0.02 µM): 1.2%
inhibition (MAP3K1 (human); compound 0.2 µM): -1%
inhibition (MAP3K8 (human); compound 0.02 µM): -3.2%
inhibition (MAP3K8 (human); compound 0.2 µM): -1%
inhibition (RAF1 (human); compound 0.02 µM): 3.1%
inhibition (RAF1 (human); compound 0.2 µM): -1.7%
inhibition (WEE1 (human); compound 0.02 µM): -5.4%
inhibition (WEE1 (human); compound 0.2 µM): 0.5%
inhibition (MOS (human); compound 0.02 µM): 4.2%
inhibition (MOS (human); compound 0.2 µM): 3.7%
inhibition (MAP2K4 (human); compound 0.02 µM): 0.9%
inhibition (MAP2K4 (human); compound 0.2 µM): -5.2%
inhibition (MAP2K6 (human); compound 0.02 µM): 2.8%
inhibition (MAP2K6 (human); compound 0.2 µM): -5%
inhibition (LIMK1 (human); compound 0.02 µM): -7.3%
inhibition (LIMK1 (human); compound 0.2 µM): -7.8%
inhibition (MAP3K2 (human); compound 0.02 µM): 1.9%
inhibition (MAP3K2 (human); compound 0.2 µM): 4.4%
inhibition (MAP3K11 (human); compound 0.02 µM): -1.7%
inhibition (MAP3K11 (human); compound 0.2 µM): -0.3%
inhibition (MAP3K4 (human); compound 0.02 µM): -1.7%
inhibition (MAP3K4 (human); compound 0.2 µM): -6.3%
inhibition (TTK (human); compound 0.02 µM): -4%
inhibition (TTK (human); compound 0.2 µM): -2%
inhibition (BMPR1A (human); compound 0.02 µM): 8.3%
inhibition (BMPR1A (human); compound 0.2 µM): -7.9%
inhibition (MAP3K10 (human); compound 0.02 µM): 3.6%
inhibition (MAP3K10 (human); compound 0.2 µM): 6%
inhibition (MAP3K5 (human); compound 0.02 µM): 8.7%
inhibition (MAP3K5 (human); compound 0.2 µM): 4%
inhibition (MAP2K3 (human); compound 0.02 µM): -7.4%
inhibition (MAP2K3 (human); compound 0.2 µM): -2.9%
inhibition (MAP3K9 (human); compound 0.02 µM): 4.9%
inhibition (MAP3K9 (human); compound 0.2 µM): 10.5%
inhibition (PLK4 (human); compound 0.02 µM): 7.6%
inhibition (PLK4 (human); compound 0.2 µM): 8.4%
inhibition (SRPK1 (human); compound 0.2 µM): -5.6%
inhibition (EIF2AK3 (human); compound 0.02 µM): -18%
inhibition (EIF2AK3 (human); compound 0.2 µM): -16.8%
inhibition (EIF2AK2 (human); compound 0.02 µM): -13.8%
inhibition (EIF2AK2 (human); compound 0.2 µM): -6.6%
inhibition (PLK2 (human); compound 0.02 µM): -0.9%
inhibition (PLK2 (human); compound 0.2 µM): -1.6%
SMILES: COc1cc2c(Oc3ccc4[nH]c(C)cc4c3F)ncnc2cc1OCCCN1CCCC1

inhibition (EPHA8 (human); compound 0.001 µM): -5%
inhibition (EPHA8 (human); compound 0.02 µM): -4.7%
inhibition (PRKCG (human); compound 0.001 µM): 1.2%
inhibition (PRKCG (human); compound 0.02 µM): 17.3%
inhibition (MKNK2 (human); compound 0.001 µM): 0.4%
inhibition (MKNK2 (human); compound 0.02 µM): 1.4%
inhibition (CDC42BPA (human); compound 0.001 µM): 4.2%
inhibition (CDC42BPA (human); compound 0.02 µM): 10.2%
inhibition (EPHB3 (human); compound 0.001 µM): -8%
inhibition (EPHB3 (human); compound 0.02 µM): -4.7%
inhibition (MAP3K12 (human); compound 0.001 µM): 6.6%
inhibition (MAP3K12 (human); compound 0.02 µM): 4.3%
inhibition (STK11 (human); compound 0.001 µM): 1.9%
inhibition (STK11 (human); compound 0.02 µM): 0.2%
inhibition (MAP2K5 (human); compound 0.001 µM): -15.6%
inhibition (MAP2K5 (human); compound 0.02 µM): -11.8%
inhibition (MAP2K1 (human); compound 0.001 µM): 4.3%
inhibition (MAP2K1 (human); compound 0.02 µM): -1.3%
inhibition (MAP2K2 (human); compound 0.001 µM): -7.9%
inhibition (MAP2K2 (human); compound 0.02 µM): 0.1%
inhibition (BRAF (human); compound 0.001 µM): -1.8%
inhibition (BRAF (human); compound 0.02 µM): -4.5%
inhibition (MAP2K7 (human); compound 0.001 µM): -1.2%
inhibition (MAP2K7 (human); compound 0.02 µM): -3.4%
inhibition (MAP3K3 (human); compound 0.001 µM): 6.6%
inhibition (MAP3K3 (human); compound 0.02 µM): 0.5%
inhibition (MAP3K1 (human); compound 0.001 µM): -3.7%
inhibition (MAP3K1 (human); compound 0.02 µM): -3.5%
inhibition (MAP3K8 (human); compound 0.001 µM): -5.7%
inhibition (MAP3K8 (human); compound 0.02 µM): -0.7%
inhibition (RAF1 (human); compound 0.001 µM): 0.9%
inhibition (RAF1 (human); compound 0.02 µM): -3%
inhibition (WEE1 (human); compound 0.001 µM): -2.1%
inhibition (WEE1 (human); compound 0.02 µM): 1.5%
inhibition (MOS (human); compound 0.001 µM): -7.5%
inhibition (MOS (human); compound 0.02 µM): -15.4%
inhibition (MAP2K4 (human); compound 0.001 µM): -0.4%
inhibition (MAP2K4 (human); compound 0.02 µM): -5.7%
inhibition (MAP2K6 (human); compound 0.001 µM): 3.2%
inhibition (MAP2K6 (human); compound 0.02 µM): 2.3%
inhibition (LIMK1 (human); compound 0.001 µM): 1.5%
inhibition (LIMK1 (human); compound 0.02 µM): -2.6%
inhibition (MAP3K2 (human); compound 0.001 µM): -0.4%
inhibition (MAP3K2 (human); compound 0.02 µM): 1.9%
inhibition (MAP3K11 (human); compound 0.001 µM): -5.9%
inhibition (MAP3K11 (human); compound 0.02 µM): -7.1%
inhibition (MAP3K4 (human); compound 0.001 µM): -7.9%
inhibition (MAP3K4 (human); compound 0.02 µM): -1.7%
inhibition (TTK (human); compound 0.001 µM): -2.7%
inhibition (TTK (human); compound 0.02 µM): -3.2%
inhibition (BMPR1A (human); compound 0.001 µM): -0.4%
inhibition (BMPR1A (human); compound 0.02 µM): 1.1%
inhibition (MAP3K10 (human); compound 0.001 µM): 4.4%
inhibition (MAP3K10 (human); compound 0.02 µM): 2.7%
inhibition (MAP3K5 (human); compound 0.001 µM): -2%
inhibition (MAP3K5 (human); compound 0.02 µM): -2.8%
inhibition (MAP2K3 (human); compound 0.001 µM): -2.7%
inhibition (MAP2K3 (human); compound 0.02 µM): -2.2%
inhibition (MAP3K9 (human); compound 0.001 µM): 1.1%
inhibition (MAP3K9 (human); compound 0.02 µM): 0.1%
inhibition (PLK4 (human); compound 0.001 µM): 23.3%
inhibition (PLK4 (human); compound 0.02 µM): 48.9%
inhibition (SRPK1 (human); compound 0.001 µM): -6.9%
inhibition (SRPK1 (human); compound 0.02 µM): -5.3%
inhibition (EIF2AK3 (human); compound 0.001 µM): -16.9%
inhibition (EIF2AK3 (human); compound 0.02 µM): -10.8%
inhibition (EIF2AK2 (human); compound 0.001 µM): -26.3%
inhibition (EIF2AK2 (human); compound 0.02 µM): -20.8%
inhibition (PLK2 (human); compound 0.001 µM): -3%
inhibition (PLK2 (human); compound 0.02 µM): 1.7%
SMILES: CNC(=O)c1ccccc1Sc1ccc2c(/C=C/c3ccccn3)n[nH]c2c1
